Results reported in ChEMBL document CHEMBL5214912, “Design, synthesis, and SAR study of novel 4,5-dihydropyrazole-Thiazole derivatives with anti-inflammatory activities for the treatment of sepsis” (Eur J Med Chem, 2021).
Calls of active or inactive are those of the source.

Columns and labels:
RAW264.7 [1] = assay: Inhibition of LPS-induced NO production in mouse RAW264.7 cells at 1 uM pre-incubated for 1 hrs followed by LPS stimulation and measured after 24 hrs; format: functional, cell-based; conditions: time 25.0 hrs
RAW264.7 [2] = assay: Inhibition of LPS-induced NO production in mouse RAW264.7 cells at 10 uM pre-incubated for 1 hrs followed by LPS stimulation and measured after 24 hrs; format: functional, cell-based; conditions: time 25.0 hrs
RAW264.7 [3] = assay: Antiinflammatory activity in mouse RAW264.7 cells assessed as inhibition of LPS-induced NO production at 2.5 to 10 uM pre-incubated for 1 hrs followed by LPS stimulation and measured after 24 hrs; format: functional, cell-based; conditions: dose 2.5-10 µM, time 25.0 hrs, DDE = dose-dependent effect
RAW264.7 [4] = assay: Antiinflammatory activity in mouse RAW264.7 cells assessed as reduction in LPS-induced IL-1beta mRNA expression at 2.5 to 10 uM pre-incubated for 1 hrs followed by LPS stimulation and measured after 24 hrs by qRT-PCR assay; format: functional, cell-based; conditions: dose 2.5-10 µM, time 25.0 hrs, DDE = dose-dependent effect
RAW264.7 [5] = assay: Antiinflammatory activity in mouse RAW264.7 cells assessed as reduction in LPS-induced TNF-alpha mRNA expression at 2.5 to 10 uM pre-incubated for 1 hrs followed by LPS stimulation and measured after 24 hrs by qRT-PCR assay; format: functional, cell-based; conditions: dose 2.5-10 µM, time 25.0 hrs, DDE = dose-dependent effect
RAW264.7 [6] = assay: Antiinflammatory activity in mouse RAW264.7 cells assessed as reduction in LPS-induced iNOS protein expression at 2.5 to 10 uM pre-incubated for 1 hrs followed by LPS stimulation and measured after 24 hrs by western blotting method; format: functional, cell-based; conditions: dose 2.5-10 µM, time 25.0 hrs
RAW264.7 [7] = assay: Antiinflammatory activity in mouse RAW264.7 cells assessed as reduction in LPS-induced COX-2 protein expression at 2.5 to 10 uM pre-incubated for 1 hrs followed by LPS stimulation and measured after 24 hrs by western blotting method; format: functional, cell-based; conditions: dose 2.5-10 µM, time 25.0 hrs
RAW264.7 [8] = assay: Antiinflammatory activity in mouse RAW264.7 cells assessed as reduction in LPS-induced NF-kappaB phosphorylation at 2.5 to 10 uM pre-incubated for 1 hrs followed by LPS stimulation and measured after 24 hrs by immunofluorescence staining assay; format: functional, cell-based; conditions: dose 2.5-10 µM, time 25.0 hrs
RAW264.7 [9] = assay: Antiinflammatory activity in mouse RAW264.7 cells assessed as reduction in LPS-induced p38 phosphorylation at 2.5 to 10 uM pre-incubated for 1 hrs followed by LPS stimulation and measured after 24 hrs by western blotting method; format: functional, cell-based; conditions: dose 2.5-10 µM, time 25.0 hrs, DDE = dose-dependent effect
RAW264.7 [10] = assay: Antiinflammatory activity in mouse RAW264.7 cells assessed as reduction in LPS-induced ERK phosphorylation at 2.5 to 10 uM pre-incubated for 1 hrs followed by LPS stimulation and measured after 24 hrs by western blotting method; format: functional, cell-based; conditions: dose 2.5-10 µM, time 25.0 hrs, DDE = dose-dependent effect
RAW264.7 [11] = assay: Antiinflammatory activity in mouse RAW264.7 cells assessed as reduction in LPS-induced JNK phosphorylation at 2.5 to 10 uM pre-incubated for 1 hrs followed by LPS stimulation and measured after 24 hrs by western blotting method; format: functional, cell-based; conditions: dose 2.5-10 µM, time 25.0 hrs, DDE = dose-dependent effect
[12] = Toxicity in LPS-induced sepsis in C57BL/6J mouse model assessed as decrease in ratio of kidney weight to body weight at 7 mg/kg,IG administrated for 72 hrs followed by LPS stimulation and measured after 12 hrs; format: organism-based; conditions: in vivo, po, 84 h
[13] = Toxicity in LPS-induced sepsis in C57BL/6J mouse model assessed as decrease in ratio of kidney weight to body weight at 14 mg/kg,IG administrated for 72 hrs followed by LPS stimulation and measured after 12 hrs; format: organism-based; conditions: in vivo, po, 84 h
[14] = Toxicity in LPS-induced sepsis in C57BL/6J mouse model assessed as decrease in ratio of spleen weight to body weight at 7 mg/kg,IG administrated for 72 hrs followed by LPS stimulation and measured after 12 hrs; format: organism-based; conditions: in vivo, po, 84 h
[15] = Toxicity in LPS-induced sepsis in C57BL/6J mouse model assessed as decrease in ratio of spleen weight to body weight at 14 mg/kg,IG administrated for 72 hrs followed by LPS stimulation and measured after 12 hrs; format: organism-based; conditions: in vivo, po, 84 h
[16] = Toxicity in LPS-induced sepsis in C57BL/6J mouse model assessed as decrease in ratio of heart weight to body weight at 7 mg/kg,IG administrated for 72 hrs followed by LPS stimulation and measured after 12 hrs; format: organism-based; conditions: in vivo, po, 84 h
[17] = Toxicity in LPS-induced sepsis in C57BL/6J mouse model assessed as decrease in ratio of heart weight to body weight at 14 mg/kg,IG administrated for 72 hrs followed by LPS stimulation and measured after 12 hrs; format: organism-based; conditions: in vivo, po, 84 h
Mus musculus [18] = assay: Antiinflammatory activity in LPS-induced sepsis in C57BL/6J mouse model assessed as reduction in inflammatory cell infiltration in liver at 7 mg/kg,IG administrated for 72 hrs followed by LPS stimulation and measured after 12 hrs by H and E staining method; format: functional, organism-based; conditions: time 84.0 hrs
Mus musculus [19] = assay: Antiinflammatory activity in LPS-induced sepsis in C57BL/6J mouse model assessed as reduction in inflammatory cell infiltration in liver at 14 mg/kg,IG administrated for 72 hrs followed by LPS stimulation and measured after 12 hrs by H and E staining method; format: functional, organism-based; conditions: time 84.0 hrs
Mus musculus [20] = assay: Antiinflammatory activity in LPS-induced sepsis in C57BL/6J mouse model assessed as reduction in morphological changes in kidney at 7 mg/kg,IG administrated for 72 hrs followed by LPS stimulation and measured after 12 hrs by H and E staining method; format: functional, organism-based; conditions: time 84.0 hrs
Mus musculus [21] = assay: Antiinflammatory activity in LPS-induced sepsis in C57BL/6J mouse model assessed as reduction in morphological changes in kidney at 14 mg/kg,IG administrated for 72 hrs followed by LPS stimulation and measured after 12 hrs by H and E staining method; format: functional, organism-based; conditions: time 84.0 hrs
Mus musculus [22] = assay: Antiinflammatory activity in LPS-induced sepsis in C57BL/6J mouse model assessed as reduction in morphological changes in heart at 7 mg/kg,IG administrated for 72 hrs followed by LPS stimulation and measured after 12 hrs by H and E staining method; format: functional, organism-based; conditions: time 84.0 hrs
Mus musculus [23] = assay: Antiinflammatory activity in LPS-induced sepsis in C57BL/6J mouse model assessed as reduction in morphological changes in heart at 14 mg/kg,IG administrated for 72 hrs followed by LPS stimulation and measured after 12 hrs by H and E staining method; format: functional, organism-based; conditions: time 84.0 hrs
Mus musculus [24] = assay: Antiinflammatory activity in LPS-induced sepsis in C57BL/6J mouse model assessed as reduction in morphological changes in spleen at 7 mg/kg,IG administrated for 72 hrs followed by LPS stimulation and measured after 12 hrs by H and E staining method; format: functional, organism-based; conditions: time 84.0 hrs
Mus musculus [25] = assay: Antiinflammatory activity in LPS-induced sepsis in C57BL/6J mouse model assessed as reduction in morphological changes in spleen at 14 mg/kg,IG administrated for 72 hrs followed by LPS stimulation and measured after 12 hrs by H and E staining method; format: functional, organism-based; conditions: time 84.0 hrs
Mus musculus [26] = assay: Antiinflammatory activity in LPS-induced sepsis in C57BL/6J mouse model assessed as reduction in serum AST level at 7 mg/kg,IG administrated for 72 hrs followed by LPS stimulation and measured after 12 hrs; format: functional, organism-based; conditions: time 84.0 hrs
Mus musculus [27] = assay: Antiinflammatory activity in LPS-induced sepsis in C57BL/6J mouse model assessed as reduction in serum AST level at 14 mg/kg,IG administrated for 72 hrs followed by LPS stimulation and measured after 12 hrs; format: functional, organism-based; conditions: time 84.0 hrs
Mus musculus [28] = assay: Antiinflammatory activity in LPS-induced sepsis in C57BL/6J mouse model assessed as reduction in serum Urea nitrogen level at 7 mg/kg,IG administrated for 72 hrs followed by LPS stimulation and measured after 12 hrs; format: functional, organism-based; conditions: time 84.0 hrs
Mus musculus [29] = assay: Antiinflammatory activity in LPS-induced sepsis in C57BL/6J mouse model assessed as reduction in serum Urea nitrogen level at 14 mg/kg,IG administrated for 72 hrs followed by LPS stimulation and measured after 12 hrs; format: functional, organism-based; conditions: time 84.0 hrs
Mus musculus [30] = assay: Antiinflammatory activity in LPS-induced sepsis in C57BL/6J mouse model assessed as reduction in serum creatinine level at 7 mg/kg,IG administrated for 72 hrs followed by LPS stimulation and measured after 12 hrs; format: functional, organism-based; conditions: time 84.0 hrs
Mus musculus [31] = assay: Antiinflammatory activity in LPS-induced sepsis in C57BL/6J mouse model assessed as reduction in serum creatinine level at 14 mg/kg,IG administrated for 72 hrs followed by LPS stimulation and measured after 12 hrs; format: functional, organism-based; conditions: time 84.0 hrs
Mus musculus [32] = assay: Antiinflammatory activity in LPS-induced sepsis in C57BL/6J mouse model assessed as reduction in serum LDH level at 7 mg/kg,IG administrated for 72 hrs followed by LPS stimulation and measured after 12 hrs; format: functional, organism-based; conditions: time 84.0 hrs
Mus musculus [33] = assay: Antiinflammatory activity in LPS-induced sepsis in C57BL/6J mouse model assessed as reduction in serum LDH level at 14 mg/kg,IG administrated for 72 hrs followed by LPS stimulation and measured after 12 hrs; format: functional, organism-based; conditions: time 84.0 hrs
Mus musculus [34] = assay: Antiinflammatory activity in LPS-induced sepsis in C57BL/6J mouse model assessed as reduction in serum HBDH level at 7 mg/kg,IG administrated for 72 hrs followed by LPS stimulation and measured after 12 hrs; format: functional, organism-based; conditions: time 84.0 hrs
Mus musculus [35] = assay: Antiinflammatory activity in LPS-induced sepsis in C57BL/6J mouse model assessed as reduction in serum HBDH level at 14 mg/kg,IG administrated for 72 hrs followed by LPS stimulation and measured after 12 hrs; format: functional, organism-based; conditions: time 84.0 hrs

COc1ccccc1C1=NN(c2nc(C)cs2)C(c2ccc(C)cc2)C1 (centres undefined)
active: inhibition (RAW264.7 [1])

Cc1csc(N2N=C(c3ccccc3Br)CC2c2ccc(Br)cc2)n1 (centres undefined)
active: inhibition (RAW264.7 [1])

Cc1ccc(C2CC(c3ccccc3Br)=NN2c2nc(C)cs2)cc1 (centres undefined)
active: inhibition (RAW264.7 [1])

COc1ccc(C2=NN(c3nc(C)cs3)C(c3ccc(Br)cc3)C2)cc1 (centres undefined)
active: inhibition (RAW264.7 [1])

COc1ccc(C2=NN(c3nc(C)cs3)C(c3ccc(C)cc3)C2)cc1 (centres undefined)
active: inhibition (RAW264.7 [1])

COc1ccc(C2=NN(c3nc(C)cs3)C(c3cc(OC)c(OC)c(OC)c3)C2)cc1 (centres undefined)
active: inhibition (RAW264.7 [1])

COc1ccccc1C1=NN(c2nc(C)cs2)C(c2cc(OC)c(OC)c(OC)c2)C1 (centres undefined)
active: inhibition (RAW264.7 [1])

COc1ccccc1C1=NN(c2nc(C)cs2)C(c2ccccc2C)C1 (centres undefined)
Non-Toxic: Activity [12] | Activity [13] | Activity [14] | Activity [15] | Activity [16] | Activity [17]
active: inhibition (RAW264.7 [1]) | inhibition (RAW264.7 [2]) | Activity (RAW264.7 [3]) Dde | Activity (RAW264.7 [4]) Dde | Activity (RAW264.7 [5]) Dde | Activity (RAW264.7 [6]) | Activity (RAW264.7 [7]) | Activity (RAW264.7 [8]) | Activity (RAW264.7 [9]) Dde | Activity (RAW264.7 [10]) Dde | Activity (RAW264.7 [11]) Dde | Activity (Mus musculus [18]) | Activity (Mus musculus [19]) | Activity (Mus musculus [20]) | Activity (Mus musculus [21]) | Activity (Mus musculus [22]) | Activity (Mus musculus [23]) | Activity (Mus musculus [24]) | Activity (Mus musculus [25]) | Activity (Mus musculus [26]) | Activity (Mus musculus [27]) | Activity (Mus musculus [28]) | Activity (Mus musculus [29]) | Activity (Mus musculus [30]) | Activity (Mus musculus [31]) | Activity (Mus musculus [32]) | Activity (Mus musculus [33]) | Activity (Mus musculus [34]) | Activity (Mus musculus [35])

Cc1csc(N2N=C(c3ccc(F)cc3)CC2c2ccc(Br)cc2)n1 (centres undefined)
active: inhibition (RAW264.7 [1])

COc1ccccc1C1=NN(c2nc(C)cs2)C(c2ccc(Br)cc2)C1 (centres undefined)
active: inhibition (RAW264.7 [1])
